Earlier results, collected in US8197866B1, “Herbal treatment for diabetes mellitus, type II” (priority 2009, dated 2012).

Assays:
[1] = tested on: TPA-mediated tumor promotion
[2] = tested on: streptozocin-induced diabetes

Compound	effect on TPA-mediated tumor promotion [1]	anti-diabetic activity [2]
O=c1cc(-c2ccc(O)cc2)oc2cc(O)cc(O)c12 [apigenin]	inhibitory effect	
C[C@@H]1O[C@@H](OC[C@H]2O[C@@H](Oc3cc(O)cc4oc(-c5ccc(O)c(O)c5)cc(=O)c34)[C@H](O)[C@@H](O)[C@@H]2O)[C@H](O)[C@H](O)[C@H]1O [luteolin 5-rutinoside]		marked anti-diabetic activity
